Laboratory results as given in patent US6376497B1, “Antifungal azole derivatives having a fluorinated vinyl group and process for preparing same” (Korea Research Institute of Chemical Technology, priority 1999, dated 2002).

Assays:
Experiment in all cases: In vitro antifungal activity, microbroth dilution MIC
Assay type in all cases: cell-based
[1] = tested on: Cryptococcus neoformans IFM. 40092; settings: Cry. neoformans IFM. 40092, RPMI-1640, 35° C., 4 to 48 hours
Method in brief: (§1)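 Broth microdilution adapted from NCCLS M27, in RPMI-1640 with 0.165 M MOPS, pH 7.0. Yeast or mould inoculum at 2×10^3 CFU/ml was mixed 1:1 with DMSO-derived compound solutions (200 to 0.10 μg/ml before mixing) and incubated at 35 °C for 4 to 48 h. MIC was the concentration showing no growth.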

Candida albicans C1-2 = settings: C. albicans C1-2, RPMI-1640, 35° C., 4 to 48 hours
Method in brief: as §1

[2] = tested on: Candida tropicalis A. 13803; settings: C. tropicalis A. 13803, RPMI-1640, 35° C., 4 to 48 hours
Method in brief: as §1

[3] = tested on: Candida albicans IFO. 1385; settings: C. albicans IFO. 1385, RPMI-1640, 35° C., 4 to 48 hours
Method in brief: as §1

[4] = tested on: Aspergillus niger A. 16404; settings: A. niger A. 16404, RPMI-1640, 35° C., 4 to 48 hours
Method in brief: as §1

[5] = tested on: Trichophyton mentagrophytes A. 9129; settings: T. mentagrophytes A. 9129, RPMI-1640, 35° C., 4 to 48 hours
Method in brief: as §1

[6] = tested on: Candida pseudotropicalis K. 11658; settings: C. pseudotropicalis K. 11658, RPMI-1640, 35° C., 4 to 48 hours
Method in brief: as §1

[7] = tested on: Torulopsis glabrata B. 16205; settings: T. glabrata B. 16205, RPMI-1640, 35° C., 4 to 48 hours
Method in brief: as §1

[8] = tested on: Cryptococcus neoformans B. 42419; settings: Cry. neoformans B. 42419, RPMI-1640, 35° C., 4 to 48 hours
Method in brief: as §1

[9] = tested on: Candida parapsitosis A. 7330; settings: C. parapsitosis A. 7330, RPMI-1640, 35° C., 4 to 48 hours
Method in brief: as §1

[10] = tested on: Cryptococcus neoformans A. 34144; settings: Cry. neoformans A. 34144, RPMI-1640, 35° C., 4 to 48 hours
Method in brief: as §1

[11] = tested on: Trichophyton mentagrophytes B. 32663; settings: T. mentagrophytes B. 32663, RPMI-1640, 35° C., 4 to 48 hours
Method in brief: as §1

[12] = tested on: Candida albicans A. 10231; settings: C. albicans A. 10231, RPMI-1640, 35° C., 4 to 48 hours
Method in brief: as §1

[13] = tested on: Aspergillus furnigatus B. 19119; settings: A furnigatus B. 19119, RPMI-1640, 35° C., 4 to 48 hours
Method in brief: as §1

Candida krusei K. 11655 = settings: C. krusei K. 11655, RPMI-1640, 35° C., 4 to 48 hours
Method in brief: as §1

Row | SMILES | Minimal inhibitory concentration (MIC) [1] | Minimal inhibitory concentration (MIC) (Candida albicans C1-2) | Minimal inhibitory concentration (MIC) [2] | Minimal inhibitory concentration (MIC) [3] | Minimal inhibitory concentration (MIC) [4] | Minimal inhibitory concentration (MIC) [5] | Minimal inhibitory concentration (MIC) [6] | Minimal inhibitory concentration (MIC) [7] | Minimal inhibitory concentration (MIC) [8] | Minimal inhibitory concentration (MIC) [9] | Minimal inhibitory concentration (MIC) [10] | Minimal inhibitory concentration (MIC) [11] | Minimal inhibitory concentration (MIC) [12] | Minimal inhibitory concentration (MIC) [13] | Minimal inhibitory concentration (MIC) (Candida krusei K. 11655)
1 | COc1cccc(C(=C(F)OCC2COC(Cn3ccnc3)(c3ccc(F)cc3F)O2)C(F)(F)F)c1 (mixture of isomers) [Ex. 60] | 0.20 µg/mL | 12.5 µg/mL | 100 µg/mL | 0.78 µg/mL | 100 µg/mL | 6.25 µg/mL | 100 µg/mL | 6.25 µg/mL | 1.56 µg/mL | >100 µg/mL | 1.56 µg/mL | 3.13 µg/mL | 12.5 µg/mL | 12.5 µg/mL | >100 µg/mL
2 | FC(OCC1COC(Cn2ccnc2)(c2ccc(F)cc2F)O1)=C(c1ccc2c(c1)OCO2)C(F)(F)F (mixture of isomers) [Ex. 62] | 0.20 µg/mL | 12.5 µg/mL | 100 µg/mL | 0.78 µg/mL | >100 µg/mL | 12.5 µg/mL | 50.0 µg/mL | 3.13 µg/mL | 0.78 µg/mL | >100 µg/mL | 0.78 µg/mL | 3.13 µg/mL | 12.5 µg/mL | 25.0 µg/mL | 100 µg/mL
3 | FC(OCC1COC(Cn2ccnc2)(c2ccc(F)cc2F)O1)=C(c1ccc(Oc2ccccc2)cc1)C(F)(F)F (mixture of isomers) [Ex. 63] | 0.39 µg/mL | 50.0 µg/mL | >100 µg/mL | 3.13 µg/mL | >100 µg/mL | 25.0 µg/mL | >100 µg/mL | 25.0 µg/mL | 1.56 µg/mL | >100 µg/mL | 1.56 µg/mL | 6.25 µg/mL | 25.0 µg/mL | >100 µg/mL | >100 µg/mL
4 | FC(OCC1COC(Cn2ccnc2)(c2ccc(F)cc2F)O1)=C(c1cccc(Cl)c1)C(F)(F)F (mixture of isomers) [Ex. 64] | 0.20 µg/mL | 12.5 µg/mL | 100 µg/mL | 0.78 µg/mL | 100 µg/mL | 6.25 µg/mL | 25.0 µg/mL | 6.25 µg/mL | 1.56 µg/mL | 100 µg/mL | 1.56 µg/mL | 1.56 µg/mL | 12.5 µg/mL | 3.13 µg/mL | 50.0 µg/mL
5 | FC(OCC1COC(Cn2ccnc2)(c2ccc(F)cc2F)O1)=C(c1cccc(F)c1)C(F)(F)F (mixture of isomers) [Ex. 65] | ≦0.10 μg/ml | 12.5 µg/mL | 50.0 µg/mL | 0.78 µg/mL | 12.5 µg/mL | 3.13 µg/mL | 25.0 µg/mL | 6.25 µg/mL | 1.56 µg/mL | >100 µg/mL | 1.56 µg/mL | 1.53 µg/mL | 12.5 µg/mL | 3.13 µg/mL | 100 µg/mL

Continued, values first:

Row | Minimal inhibitory concentration (MIC) [1] | Minimal inhibitory concentration (MIC) (Candida albicans C1-2) | Minimal inhibitory concentration (MIC) [2] | Minimal inhibitory concentration (MIC) [3] | Minimal inhibitory concentration (MIC) [4] | Minimal inhibitory concentration (MIC) [5] | Minimal inhibitory concentration (MIC) [6] | Minimal inhibitory concentration (MIC) [7] | Minimal inhibitory concentration (MIC) [8] | Minimal inhibitory concentration (MIC) [9] | Minimal inhibitory concentration (MIC) [10] | Minimal inhibitory concentration (MIC) [11] | Minimal inhibitory concentration (MIC) [12] | Minimal inhibitory concentration (MIC) [13] | Minimal inhibitory concentration (MIC) (Candida krusei K. 11655) | SMILES
6 | 0.39 µg/mL | 25.0 µg/mL | >100 µg/mL | 0.78 µg/mL | >100 µg/mL | 12.5 µg/mL | 50.0 µg/mL | 6.25 µg/mL | 1.56 µg/mL | >100 µg/mL | 1.56 µg/mL | 6.25 µg/mL | 25.0 µg/mL | 25.0 µg/mL | 100 µg/mL | FC(OCC1COC(Cn2ccnc2)(c2ccc(F)cc2F)O1)=C(c1cccc(C(F)(F)F)c1)C(F)(F)F (mixture of isomers) [Ex. 58]
7 | 0.78 µg/mL | 25.0 µg/mL | >100 µg/mL | 0.78 µg/mL | >100 µg/mL | 25.0 µg/mL | 25.0 µg/mL | 3.13 µg/mL | 3.13 µg/mL | >100 µg/mL | 3.13 µg/mL | 12.5 µg/mL | 12.5 µg/mL | 50.0 µg/mL | 50.0 µg/mL | FC(OCC1COC(Cn2ccnc2)(c2ccc(F)cc2F)O1)=C(c1ccc(C(F)(F)F)cc1)C(F)(F)F (mixture of isomers) [Ex. 59]
8 | 0.20 µg/mL | 12.5 µg/mL | 100 µg/mL | 0.78 µg/mL | 100 µg/mL | 6.25 µg/mL | 100 µg/mL | 6.25 µg/mL | 1.56 µg/mL | >100 µg/mL | 1.56 µg/mL | 3.13 µg/mL | 12.5 µg/mL | 12.5 µg/mL | >100 µg/mL | COc1ccc(C(=C(F)OCC2COC(Cn3ccnc3)(c3ccc(F)cc3F)O2)C(F)(F)F)cc1 (mixture of isomers) [Ex. 61]
